Laboratory results taken from patent US4443475A, “Amides of acyl-carnitines, process for preparing same and pharmaceutical compositions containing such amides” (priority 1979, dated 1984).
Like-named read-outs stand apart in the source and are kept apart here.

What was measured:
[1] = Acute toxicity (LD50), Weil method; settings: mouse, in vivo, mice (Table I title)
[2] = Anti-arrhythmic (antifibrillation) effect, aconitine-induced arrhythmia; type: in vivo, mice; settings: Mus musculus, ip, read-out: Antifibrillation Effects, % reduction
Method: (c) Anti-arrhythmic effect
In order to evaluate by means of in vivo test the anti-arrhythmic effect exerted by the various carnitine derivatives in addition to and versus the usual in vitro tests, the method described by Nwangwu et al. (Arch. Int. Pharmacodyn., 1977, v. 229, 219) was employed.
This method is carried out by injecting a solution of aconitine into the caudal […] and recording the time of the appearance of arrhythmia and tachycardia from 2 to 60 minutes following the administration of the compounds under investigation.

[3] = Effect antagonizing adrenaline (mortality); type: in vivo; settings: Mus musculus, ip, mice, 36 hours, read-out: Antiadrenaline Effects, % mortality reduction; for responders at 300 mg/kg: 300 mg/kg i.p.; for responders at 70 mg/kg: 70 mg/kg i.p.; for responders at 100 mg/kg: 100 mg/kg i.p.; for responders at 50 mg/kg: 50 mg/kg i.p.
Method: (d) Effect antagonizing adrenaline
Male Albino Swiss mice weighing 12-22 g, divided into groups of 10, were treated with the compounds under investigation or with saline (controls) i.p. and then 30 minutes later with adrenaline (treated) at a dose capable of causing death in 100% of the control animals due to ventricular fibrillation and cardiac lesions ensuing from increased heart rate, pressure and oxygen consumption by the myocardium.
Mortality was monitored for 36 hours and the effect of the compounds was expressed in % of survivals versus treated animals.

isolated rabbit heart = assay: Inotropic effect on isolated rabbit heart (Langendorff) after anoxia; settings: Oryctolagus cuniculus, 10 min; 10^-5 gl^-1, isolated rabbit heart, 10 minutes after end of anoxia; read-out: Inotropic Effect, % of controls (increased percentage versus controls)
Method: Rabbit hearts isolated by Langendorff's method were perfused in a Ringer solution oxygenated at 38.2° C. The isometric […], ECG and coronary flow were recorded using a "Battaglia-Rangoni" polygraph.
Metabolic damage in the heart muscle was induced by removing the oxygen from the perfusion liquid until contractile force was reduced by 80%.
In these conditions of prolonged anoxia myocardial […] glycolysis was slowed down, accompanied by accumulation of catabolic acids due to storage of pyruvic acid and its conversion to lactic acid which cannot be utilized owing to the depression of the pyridinic enzymes, such as lacticodehydrogenase. This affects anaerobic glycolysis involving an ever increasing number of enzymes, with a progressive and increasingly more critical exhaustion of the myocardium.
Thus there is a whole series of cardiac muscle fatigue levels recorded by the pattern of the parameters taken into account i.e. contractile force, coronary output, heart rate and cardiac rhythm. As soon as the contractile force was reduced by 80%, the perfusion liquid was once again oxygenated without adding other compounds (controls) or with the addition of the compounds under investigation at various concentrations.

[4] = Antagonism to cardiazol (protection from death by convulsions); type: in vivo; settings: ip, rat, 5 hours; for responders at 50 mg/kg: 50 mg/kg i.p. (head); for responders at 150 mg/kg: 150 mg/kg i.p. (head); for responders at 100 mg/kg: 100 mg/kg i.p. (head)
[5] = Interaction with barbiturates (EVIPAN, loss of righting reflex); type: in vivo; settings: Mus musculus, ip, mice, EVIPAN 75 mg/kg, read-out: Barbituric interaction, % reduction of RR (righting reflex) loss; for inhibition in vivo at 50 mg/kg: 50 mg/kg i.p. (head); for inhibition in vivo at 100 mg/kg: 100 mg/kg i.p. (head)
[6] = Effect on spontaneous motility (ANIMEX); type: in vivo; settings: Mus musculus, ip, 0.5 h, mice, control 850 ± 65 in 30 min, read-out: Spontaneous motility, % increase versus controls; for change in vivo at 50 mg/kg: 50 mg/kg i.p.; for change in vivo at 25 mg/kg: 25 mg/kg i.p.
Method: (g) Effect on spontaneous motility
Male Albino Swiss mice weighing 18-22 g, were divided into two groups of 5 and caged for at least 1 week. One group received the compounds under investigation and the other group (control group) was given the vehicle. The animals remained in their cages and were placed on the ANIMEX (Farad-Sweden) apparatus which recorded the movements for two 30-minute intervals beginning from 5 minutes after administration of the compounds.
Table II gives the results expressed as percentage variation in the number of spontaneous movements of the treated animals versus those of the control animals.

## CCCC(=O)OC(CC(=O)NCCS(=O)(=O)[O-])C[N+](C)(C)C (stereo not drawn) [OCOCH2CH2CH3; 2-sulfonyl ethyl amino]
[1]; ip, read-out: LD50 i.p.
  LD50: 1500 mg/kg
[1]; oral, read-out: LD50 oral
  LD50: 4000 mg/kg
[2]
  inhibition in vivo at 50 mg/kg: 60%
[3]
  responders at 300 mg/kg: 50%
Isolated rabbit heart
  activation at 0.01 µg/mL: 40%
[4]
  responders at 50 mg/kg: 58%
[5]
  inhibition in vivo at 50 mg/kg: 70%
[6]
  change in vivo at 50 mg/kg: 43%

## CCC(=O)OC(CC(=O)NC(CCC(=O)OC)C(=O)OC)C[N+](C)(C)C (stereo not drawn)
[1]; ip, read-out: LD50 i.p.
  LD50: 400 mg/kg
[1]; oral, read-out: LD50 oral
  LD50: 1200 mg/kg
[2]
  inhibition in vivo at 10 mg/kg: 60%
[3]
  responders at 70 mg/kg: 40%
Isolated rabbit heart
  activation at 0.01 µg/mL: 45%
[4]
  responders at 50 mg/kg: 47%
[5]
  inhibition in vivo at 50 mg/kg: 50%
[6]
  change in vivo at 50 mg/kg: 25%

## CCC(=O)OC(CC(=O)NC(CC(C)C)C(=O)OC)C[N+](C)(C)C (stereo not drawn) [propionyl carnitine amide of leucine methyl ester]
[1]; ip, read-out: LD50 i.p.
  LD50: 600 mg/kg
[1]; oral, read-out: LD50 oral
  LD50: 2350 mg/kg
[2]
  inhibition in vivo at 50 mg/kg: 75%
[3]
  responders at 100 mg/kg: 70%
Isolated rabbit heart
  activation at 0.01 µg/mL: 45%
[4]
  responders at 50 mg/kg: 32%
[5]
  inhibition in vivo at 100 mg/kg: 31%
[6]
  change in vivo at 50 mg/kg: 62%

## CCC(=O)OC(CC(=O)NC(C(=O)OC)C(C)C)C[N+](C)(C)C (stereo not drawn)
[1]; ip, read-out: LD50 i.p.
  LD50: 500 mg/kg
[1]; oral, read-out: LD50 oral
  LD50: 1350 mg/kg
[2]
  inhibition in vivo at 35 mg/kg: 60%
[3]
  responders at 50 mg/kg: 40%
Isolated rabbit heart
  activation at 0.01 µg/mL: 65%
[4]; 35 mg/kg i.p. (head)
  responders at 35 mg/kg: 38%
[5]
  inhibition in vivo at 50 mg/kg: 58%
[6]
  change in vivo at 25 mg/kg: 75%

## COC(=O)CC(NC(=O)CC(C[N+](C)(C)C)OC(C)=O)C(=O)OC (stereo not drawn) [COCH3; (1,2-dicarbomethoxy ethyl) amino]
[1]; ip, read-out: LD50 i.p.
  LD50: 1500 mg/kg
[1]; oral, read-out: LD50 oral
  LD50: 4200 mg/kg
[2]
  inhibition in vivo at 75 mg/kg: 80%
[3]
  responders at 300 mg/kg: 55%
Isolated rabbit heart
  activation at 0.01 µg/mL: 48%
[4]
  responders at 50 mg/kg: 75%
[6]
  change in vivo at 50 mg/kg: 60%

## COC(=O)C(CC(C)C)NC(=O)CC(C[N+](C)(C)C)OC(C)=O (stereo not drawn)
[1]; ip, read-out: LD50 i.p.
  LD50: 1000 mg/kg
[1]; oral, read-out: LD50 oral
  LD50: 3500 mg/kg
[2]
  inhibition in vivo at 50 mg/kg: 70%
[3]
  responders at 50 mg/kg: 75%
Isolated rabbit heart
  activation at 0.01 µg/mL: 45%
[4]
  responders at 150 mg/kg: 60%
[5]
  inhibition in vivo at 50 mg/kg: 35%
[6]
  change in vivo at 25 mg/kg: 28%

## CC(=O)OC(CC(=O)NCCS(=O)(=O)[O-])C[N+](C)(C)C (stereo not drawn) [COCH3; 2-sulfonyl ethyl amino, acetyl carnitine amide with taurine]
[1]; ip, read-out: LD50 i.p.
  LD50: 1500 mg/kg
[1]; oral, read-out: LD50 oral
  LD50: 4000 mg/kg
[2]
  inhibition in vivo at 300 mg/kg: 70%
[3]; 450 mg/kg i.p.
  responders at 450 mg/kg: 65%
Isolated rabbit heart
  activation at 0.01 µg/mL: 62%
[4]
  responders at 150 mg/kg: 65%
[5]
  inhibition in vivo at 100 mg/kg: 30%
[6]
  change in vivo at 50 mg/kg: 25%

## COC(=O)C(NC(=O)CC(C[N+](C)(C)C)OC(C)=O)C(C)C (stereo not drawn)
[1]; ip, read-out: LD50 i.p.
  LD50: 600 mg/kg
[1]; oral, read-out: LD50 oral
  LD50: 2400 mg/kg
[2]
  inhibition in vivo at 50 mg/kg: 100%
[3]
  responders at 50 mg/kg: 80%
Isolated rabbit heart
  activation at 0.01 µg/mL: 70%
[4]
  responders at 100 mg/kg: 84%
[5]
  inhibition in vivo at 50 mg/kg: 40%
[6]; 35 mg/kg i.p.
  change in vivo at 35 mg/kg: 50%

## CCC(=O)OC(CC(=O)NCCS(=O)(=O)[O-])C[N+](C)(C)C (stereo not drawn) [OCOCH2 CH3; 2-sulfonyl ethyl amino]
[1]; ip, read-out: LD50 i.p.
  LD50: 1500 mg/kg
[1]; oral, read-out: LD50 oral
  LD50: 4000 mg/kg
[2]
  inhibition in vivo at 150 mg/kg: 95%
[3]
  responders at 300 mg/kg: 70%
Isolated rabbit heart
  activation at 0.01 µg/mL: 50%
[4]
  responders at 150 mg/kg: 40%
[5]
  inhibition in vivo at 100 mg/kg: 60%
[6]
  change in vivo at 50 mg/kg: 40%

## COC(=O)CCC(NC(=O)CC(C[N+](C)(C)C)OC(C)=O)C(=O)OC (stereo not drawn) [COCH3; (1,3-dicarbomethoxy propyl) amino]
[1]; ip, read-out: LD50 i.p.
  LD50: 1000 mg/kg
[1]; oral, read-out: LD50 oral
  LD50: 3600 mg/kg
[2]
  inhibition in vivo at 20 mg/kg: 65%
[3]; 150 mg/kg i.p.
  responders at 150 mg/kg: 40%
Isolated rabbit heart
  activation at 0.01 µg/mL: 40%
[4]
  responders at 50 mg/kg: 70%
[5]; 20 mg/kg i.p. (head)
  inhibition in vivo at 20 mg/kg: 40%
[6]
  change in vivo at 25 mg/kg: 19%

## CCOC(=O)CC(O)CNC(=O)CC(C[N+](C)(C)C)OC(C)=O (stereo not drawn)
[1]; ip, read-out: LD50 i.p.
  LD50: 450 mg/kg
[1]; oral, read-out: LD50 oral
  LD50: 1300 mg/kg
[2]
  inhibition in vivo at 50 mg/kg: 65%
[3]
  responders at 70 mg/kg: 60%
Isolated rabbit heart
  activation at 0.01 µg/mL: 53%
[4]
  responders at 150 mg/kg: 70%
[5]
  inhibition in vivo at 50 mg/kg: 25%
[6]
  change in vivo at 50 mg/kg: 30%

## CCC(=O)OC(CC(=O)NC(C(=O)OC)C(C)CC)C[N+](C)(C)C (stereo not drawn)
[1]; ip, read-out: LD50 i.p.
  LD50: 750 mg/kg
[1]; oral, read-out: LD50 oral
  LD50: 2500 mg/kg
[2]
  inhibition in vivo at 50 mg/kg: 65%
[3]
  responders at 100 mg/kg: 50%
Isolated rabbit heart
  activation at 0.01 µg/mL: 65%
[4]
  responders at 50 mg/kg: 39%
[5]
  inhibition in vivo at 100 mg/kg: 27%
[6]; 100 mg/kg i.p.
  change in vivo at 100 mg/kg: 35%

## CCC(=O)OC(CC(=O)NC(CC(=O)OC)C(=O)OC)C[N+](C)(C)C (stereo not drawn)
[1]; ip, read-out: LD50 i.p.
  LD50: 590 mg/kg
[1]; oral, read-out: LD50 oral
  LD50: 1800 mg/kg
[2]
  inhibition in vivo at 40 mg/kg: 70%
[3]
  responders at 100 mg/kg: 70%
Isolated rabbit heart
  activation at 0.01 µg/mL: 50%
[4]; 40 mg/kg i.p. (head)
  responders at 40 mg/kg: 51%
[5]
  inhibition in vivo at 100 mg/kg: 25%
[6]
  change in vivo at 25 mg/kg: 59%

## CCC(C)C(NC(=O)CC(C[N+](C)(C)C)OC(C)=O)C(=O)OC (stereo not drawn)
[1]; ip, read-out: LD50 i.p.
  LD50: 500 mg/kg
[1]; oral, read-out: LD50 oral
  LD50: 1200 mg/kg
[2]
  inhibition in vivo at 40 mg/kg: 65%
[3]
  responders at 100 mg/kg: 50%
Isolated rabbit heart
  activation at 0.01 µg/mL: 45%
[4]
  responders at 100 mg/kg: 53%
[5]; 40 mg/kg i.p. (head)
  inhibition in vivo at 40 mg/kg: 35%
[6]
  change in vivo at 25 mg/kg: 34%
